Source: patent US7524503B2, “Human cytomegalovirus (HCMV) cytotoxic T cell epitopes, polyepitopes compositions comprising same and diagnostic and prophylactic and therapeutic uses therefor” (priority 2001, dated 2009)
Like-named read-outs stand apart in the source and are kept apart here.

Assays:
Assay type in all cases: cell-based, human
CD4+ T cells = assay: CD4+/CD8+ analysis of 20-mer peptides (intracellular IFN-γ staining or depletion ELISPOT)
Protocol: (§1) To determine whether a particular 20-mer peptide contained either a CD4^+- or CD8^+-restricted epitope, or both, CD4^+/CD8^+ cell depletion ELISPOT assays were performed on PBMC from healthy virus carriers. For any one experiment, three populations of cells were used: a) CD8^+-depleted PBMC, b) CD4^+-depleted PBMC, and c) non-depleted PBMC. These populations of cells were tested concurrently with the same peptides in a conventional ELISPOT assay as described herein above. DYNABEADS M-450 (Dynal, Oslo, Norway) that bound specifically to CD4^+- or CD8^+ cells were used to perform the depletion essentially according to manufacturers instructions. Beads were washed twice in cold PBS supplemented with 2% FCS using magnetic isolation. The requisite number of cells was resuspended in cold PBS supplemented with 2% FCS, added to the beads and then incubated at 4° C., in the dark, for 30 mins (CD8^+ beads) or 60 mins (CD4^+ beads). Populations were depleted of CD4^+ or CD8^+ cells using magnetic separation. After depletion, the non-attached cells were removed and washed once in growth medium, counted and used in conventional ELISPOT assay. Depleted cells were used at 1.7×10^5 cells per well and the non-depleted population was used at the standard 2.5×10^5 cells per well. After the depletion step, each respective cell population was assessed for the purity of CD4^+ and CD8^+ T cells by three-colour flow cytometry. Samples of depleted cell populations were stained with anti-CD3 antibody directly conjugated to fluorescein isothiocyanate (FITC), anti-CD4 antibody conjugated with phycoerythrin (PE) fluorochrome, and anti-CD8 antibody conjugated with Tricolor fluorochrome (described below). The percent of CD3^+/CD4^+ cells present within the CD8^+-depleted population and the percent of CD3^+/CD8^+ cells present within the CD4^+-depleted populations were assessed on FACSCalibur cytometer (Becton Dickinson). The purity of each population was greater than 90% and the results from the ELISPOT assays are expressed as the percentage of CD4+ or CD8^+ cells within the depleted populations that responded toward each peptide by producing IFN-γ.
(§2) PBMCs were incubated at 37° C. in RPMI+10% FCS with and without 10 μg/ml peptides for 6 hours. Golgiplug™ (Pharmingen, San Diego, Calif., USA) was added to the samples according to manufacturer's instructions during the second hour of incubation and cells activated with 25 ng/ml phorbol 12-myristidate 13-acetate (PMA; Sigma-Aldrich Co, St. Louis Mo.) and 1 μg/ml iomomycin (Sigma) acted as a positive control. Following the incubation, 1×10^6 cells/sample were washed and resuspended in staining buffer consisting of PBS with GolgiPlug™, 3% FCS and sodium azide. Cells were then stained with FITC conjugated anti-CD3-FITC (UCHT1, Immunotech, Marseille, France), and either Tricolor (TRI) conjugated anti-CD4 (S3.5, Caltag, Burlingame, Calif.) or anti-CD8 (3B5, Caltag) for 30 minutes, 4° C. in the dark. The cells were fixed for 20 min at 4° C. with Cytofix/Cytoperm™ (BD Biosciences) and resuspended in Perm/Wash™ permeabilization buffer (BD Biosciences) according to manufacturers protocol. Fixed cells were stained with phycoerythrin (PE) conjugated anti-human IFN-γ (B27, Pharmingen) for 30 min at 4° C. in the dark. As a negative control, cells were stained with appropriate isotype matched control antibodies. Cells were washed twice in permeabilization buffer and resuspended in staining buffer before analysis by three-colour flow cytometry on a FACSCalibur cytometer (BD Biosciences). All data analysis was carried out using FlowJo software (Tree Star, Inc. San Carlos, CA).
(§3) When using 20-mer peptides to map epitopes by ELISPOT, it is possible that some responses may be MHC class-II restricted, and not necessarily restricted through HLA class I alleles. It was evident throughout this study that some epitopes identified using ELISPOT could not be confirmed using cytotoxicity analysis. […]

CD8+ T cells = assay: as above
Protocol: as §1, §2, §3

[1] = system: PBMC from healthy HCMV seropositive donors; assay: IFN-γ ELISPOT assay; settings: peptide 10 μg/ml
Protocol: ELISPOT assay was used to assess whether stimulation of PBMC from a large panel of seropositive donors with HCMV peptides could induce IFN-γ expression in T cells. Briefly, a 96-well nitrocellulose plate (Multiscreen, Millipore) was coated overnight at 4° C. with mouse monoclonal antibody anti-IFN-γ IgG1 (10 μg/ml; Mabtech Nacka, Sweden). The plate was then washed six times in Phosphate Buffered Saline (PBS) and blocked for 1 hour at 37° C. with PBS supplemented with 5% FCS. The blocking solution was removed and PBMC from healthy HCMV seropositive donors were added at a concentration of 2.5×10^5 cells per well in growth medium. These cells were incubated for 18 h at 37° C. in a 5% CO2 atmosphere in the presence of synthetic peptides from HCMV antigens (10 μg/ml). After incubation, the plate was washed three times with PBS supplemented with 0.05% Tween, followed by three washes with PBS alone. Biotinylated anti-IFN-γ (Mabtech, Nacka Sweden) detection antibody was added to each well at a final concentration of 1 μg/ml in PBS. The plates were incubated at room temperature in the dark for 4 h and then washed, as described above. Streptavidin-Alkaline phosphatase (Sigma) was added to each well at a final concentration of 1 μg/ml in PBS and incubated at room temperature in the dark for 2 h. After a final wash with PBS, the substrate, 5-bromo-4-chloro-3-indolyl phosphate and nitro blue tetrazolium, was added to each well and the plates incubated for 30 min at RT. Cells that produced IFN-γ in response to the presence of peptide were detected as purple spots on the nitrocellulose membrane of each well. The spots were counted automatically using a closed-circuit camera (CCD) and ImagePro image analysis software or automated ELISPOT reader (AID, Germany). The T cell precursor frequency for each peptide was based on the total number of PBMC in the well and the number of peptide-specific spots per well, over an average of 3 wells. The number of peptide-specific spots was also calculated by subtracting the negative control values, which consisted of PBMC without peptide (an average of 3 wells), from the test wells.
To determine whether memory CTL responses against the predictive HCMV potential epitopes could be detected in healthy seropositive virus carriers, we used the ELISPOT assay, which allows rapid identification of CTL epitopes without prolonged in vitro culture.
We tested epitopes that were restricted for HLA A1, A3, A24, A26, B7, B8, B27, B35 and B44 in ELISPOT assays, to determine whether memory T cell responses could be detected in healthy HLA-matched virus carriers. PBMC from a cohort of healthy virus carriers (Table 2) were stimulated with individual peptides and the cells that produced IFN-γ were detected. CTL epitopes that were restricted through either HLA A1, A3, A24, A26, B7, B8 or B27, were identified.
Thus, a total of 450 peptides were produced. ELISPOT assays were used to determine whether ex vivo memory T cell responses could be detected in a cohort of 14 healthy virus carriers (Table 2). PBMC were stimulated with individual peptides and the cells that produced IFN-γ were detected.

[2] = system: peptide-sensitized autologous PHA blasts or LCLs; parameters: key to CTL response: Y: Yes; ND: Not detected

Question: With QPFMRPHERNGFTVLCPKNM as the sequence, how does the “Responding cells (% CD4)” value (CD4+ T cells; donor two) read?
Answer: The value was 0.05%.

Question: And the “Responding cells (% CD8)” value (CD8+ T cells; donor two)?
Answer: Its value is 0%.

Question: What about the “ELISPOT Responses (SFC/10^6 PBMC)” value ([1]; donor delta) of the same sequence?
Answer: The value was “SE(783) SFC/10^6 PBMC”.

Question: Which results are given for “SDSESESEEMKCSSGGGASV (human cytomegalovirus IE2 CTL epitope peptide)”?
Answer: Responding cells (% CD4) (CD4+ T cells; donor sixteen): 0.01%; Responding cells (% CD8) (CD8+ T cells; donor sixteen): 0.22%; ELISPOT Responses (SFC/10^6 PBMC) ([1]; donor sixteen): TC(147) SFC/10^6 PBMC

Question: Which results are given for “SEPVSEIEEVAPEEEEDGAE (human cytomegalovirus IE1 CTL epitope peptide)”?
Answer: Responding cells (% CD4) (CD4+ T cells; donor delta): 0%; Responding cells (% CD8) (CD8+ T cells; donor delta): 0.097%; ELISPOT Responses (SFC/10^6 PBMC) ([1]; donor delta): SE(200) SFC/10^6 PBMC

Question: Which results are given for “SSSSSSCSSASDSESESEEM (human cytomegalovirus IE2 CTL epitope peptide)”?
Answer: Responding cells (% CD4) (CD4+ T cells; donor eight): 0%; Responding cells (% CD4) (CD4+ T cells; donor sixteen): 0%; Responding cells (% CD8) (CD8+ T cells; donor eight): 0.01%; Responding cells (% CD8) (CD8+ T cells; donor sixteen): 0.05%; ELISPOT Responses (SFC/10^6 PBMC) ([1]; donor eight): 125 SFC/10^6 PBMC; ELISPOT Responses (SFC/10^6 PBMC) ([1]; donor sixteen): 93 SFC/10^6 PBMC

Question: What does the source list for TGGGAMAGASTSAGRKRKSA?
Answer: Responding cells (% CD4) (CD4+ T cells; donor eight): JW(0.01/0.01) %; Responding cells (% CD8) (CD8+ T cells; donor eight): JW(0.01/0.01) %; ELISPOT Responses (SFC/10^6 PBMC) ([1]; donor eight): JW(441) SFC/10^6 PBMC

Question: For TGPRKKKSKRISELDNEKVR, which “Responding cells (% CD4)” value (CD4+ T cells; donor seven) is on record?
Answer: The value was “SB(0.02/0.02) %”.

Question: And the “Responding cells (% CD8)” value (CD8+ T cells; donor seven)?
Answer: Its value is “SB(0.02/0.02) %”.

Question: And the “ELISPOT Responses (SFC/10^6 PBMC)” value ([1]; donor delta)?
Answer: The value was 162 SFC/10^6 PBMC.

Question: And the “ELISPOT Responses (SFC/10^6 PBMC)” value ([1]; donor seven)?
Answer: The value was 148 SFC/10^6 PBMC.

Question: How did the “Responding cells (% CD4)” value (CD4+ T cells; donor seven) turn out when TRATKMQVIGDQYVKVYLES was run?
Answer: Its value is 0.09%.

Question: What about the “Responding cells (% CD8)” value (CD8+ T cells; donor seven) of the same sequence?
Answer: Its value is 0.01%.

Question: What about the “ELISPOT Responses (SFC/10^6 PBMC)” value ([1]; donor alpha) of the same sequence?
Answer: The value was 139 SFC/10^6 PBMC.

Question: What about the “ELISPOT Responses (SFC/10^6 PBMC)” value ([1]; donor seven) of the same sequence?
Answer: Its value is 346 SFC/10^6 PBMC.

Question: How did the “Responding cells (% CD4)” value (CD4+ T cells; donor delta) turn out when VKSEVDAVRCRLGTMCNLAL was run?
Answer: Its value is 0%.

Question: And the “Responding cells (% CD8)” value (CD8+ T cells; donor delta)?
Answer: The value was 0.06%.

Question: What about the “ELISPOT Responses (SFC/10^6 PBMC)” value ([1]; donor delta) of the same sequence?
Answer: Its value is 253 SFC/10^6 PBMC.

Question: What about the “ELISPOT Responses (SFC/10^6 PBMC)” value ([1]; donor seven) of the same sequence?
Answer: The value was 320 SFC/10^6 PBMC.

Question: What does the source list for “VLCCYVLEETSVMLAKRPLI (human cytomegalovirus IE1 CTL epitope peptide)”?
Answer: CTL response ([2]; overlapping 20mer peptides, Table 4): Y; ELISPOT Responses (SFC/10^6 PBMC) ([1]; donor seven): SB(2171) SFC/10^6 PBMC

Question: With “VLEETSVML (human cytomegalovirus IE1 CTL epitope peptide)” as the sequence, how does the “CTL activity of polyclonal CTL line” value ([2]; donor seven, effector:target ratio 10:1) read?
Answer: The value was “strong CTL activity”.

Question: What about the “CTL response” value ([2]; predicted epitopes, Table 3) of the same sequence?
Answer: The value was “Y”.

Question: What about the “ELISPOT Responses (SFC/10^6 PBMC)” value ([1]; donor fifteen) of the same sequence?
Answer: Its value is 245 SFC/10^6 PBMC.

Question: What about the “ELISPOT Responses (SFC/10^6 PBMC)” value ([1]; donor seven) of the same sequence?
Answer: The value was 3752 SFC/10^6 PBMC.

Question: What does the source list for VTTERKTPRVTGGGAMAGAS?
Answer: Responding cells (% CD4) (CD4+ T cells; donor eight): 0.17%; Responding cells (% CD8) (CD8+ T cells; donor eight): 0.24%; ELISPOT Responses (SFC/10^6 PBMC) ([1]; donor eight): 285 SFC/10^6 PBMC; ELISPOT Responses (SFC/10^6 PBMC) ([1]; donor epsilon): 322 SFC/10^6 PBMC; ELISPOT Responses (SFC/10^6 PBMC) ([1]; donor two): JD(319) SFC/10^6 PBMC
